According to US20230270114A1, “FUNGICIDAL COMPOSITIONS” (SYNGENTA CROP PROTECTION AG, priority 2020, published 2023):
Where two headings read alike, the source gives them in different places.

How the values were obtained:
[1] = test system: Alternaria solani; test: Example A1: Alternaria solani / tomato / leaf disc (early blight); type: in vivo; conditions: foliar, tomato leaf disks inoculated 2 days after application, compared to untreated control
[2] = test system: Glomerella lagenarium (Colletotrichum lagenarium); test: Example A3: Glomerella lagenarium (Colletotrichum lagenarium) / liquid culture (anthracnose); type: cell-based; conditions: Colletotrichum orbiculare; read-out: control of Glomerella lagenarium
[3] = test system: Puccinia recondita f. sp. tritici; type: in vivo; conditions: foliar, wheat leaf disc preventative, inoculated 1 day after application, compared to untreated control
[4] = test system: Monographella nivalis (Microdochium nivale); test: Example A6: Monographella nivalis (Microdochium nivale) / liquid culture (foot rot cereals); type: cell-based; conditions: read-out: control of Monographella nivalis
[5] = test system: Pyrenophora teres; test: Example A12: Pyrenophora teres / barley / leaf disc preventative (net blotch); type: in vivo; conditions: foliar, inoculated 2 days after application, compared to untreated control
[6] = test system: Mycosphaerella graminicola (Septoria tritici); test: Example A14: Mycosphaerella graminicola (Septoria tritici) / liquid culture (Septoria blotch); type: cell-based; conditions: Zymoseptoria tritici; read-out: control of Mycosphaerella graminicola
[7] = test system: Magnaporthe grisea (Pyricularia oryzae); test: whole plant or invertebrate; type: in vivo; conditions: foliar, read-out: control of Magnaporthe grisea
[8] = test system: Mycosphaerella arachidis (Cercospora arachidicola); test: Example A7: Mycosphaerella arachidis (Cercospora arachidicola) / liquid culture (early leaf spot); type: cell-based; conditions: read-out: control of Mycosphaerella arachidis
[9] = test system: Phakopsora pachyrhizi; test: Example A8: Phakopsora pachyrhizi / soybean / preventative (soybean rust); type: in vivo; conditions: foliar, soybean leaf disks preventative, inoculated one day after application, compared to untreated control
[10] = test system: Puccinia recondita f. sp. tritici; type: in vivo; conditions: foliar, 24 h, wheat leaf disc curative, applied 1 day after inoculation, compared to untreated control

CC(=O)OC(C)C(=O)N(c1cc(F)nc(F)c1)c1nc(C(=O)NC2CCC23CCCC3)c(C)s1 (centres unmarked) [X.01, [2-[(2,6-difluoro-4-pyridyl)-[5-methyl-4-(spiro[3.4]octan-3-ylcarbamoyl)thiazol-2-yl]amino]-1-methyl-2-oxo-ethyl] acetate]
≥ 80%: pest or weed control at 200 ppm [1] | inhibition of growth at 20 ppm [2] | pest or weed control at 200 ppm [3] | inhibition of growth at 20 ppm [4] | pest or weed control at 200 ppm [5] | inhibition of growth at 20 ppm [6] | pest or weed control at 200 ppm [7]

CCOC(=O)OC(C)C(=O)N(c1cc(F)nc(F)c1)c1nc(C(=O)NC2CCC2)c(C)s1 (centres unmarked) [X.02, [2-[[4-(cyclobutylcarbamoyl)-5-methyl-thiazol-2-yl]-(2,6-difluoro-4-pyridyl)amino]-1-methyl-2-oxo-ethyl] ethyl carbonate]
≥ 80%: pest or weed control at 200 ppm [3] | pest or weed control at 200 ppm [7]

COC(=O)OC(C)C(=O)N(c1cc(F)nc(F)c1)c1nc(C(=O)NC2CCC23CCCC3)c(C)s1 (centres unmarked) [X.03, [2-[(2,6-difluoro-4-pyridyl)-[5-methyl-4-(spiro[3.4]octan-3-ylcarbamoyl)thiazol-2-yl]amino]-1-methyl-2-oxo-ethyl] methyl carbonate]
≥ 80%: inhibition of growth at 20 ppm [2] | pest or weed control at 200 ppm [3] | inhibition of growth at 20 ppm [4] | pest or weed control at 200 ppm [5] | inhibition of growth at 20 ppm [6] | pest or weed control at 200 ppm [7]

CCOC(=O)OC(C)C(=O)N(c1cc(F)nc(F)c1)c1nc(C(=O)NC2CCC23CCCC3)c(C)s1 (centres unmarked) [X.04, [2-[(2,6-difluoro-4-pyridyl)-[5-methyl-4-(spiro[3.4]octan-3-ylcarbamoyl)thiazol-2-yl]amino]-1-methyl-2-oxo-ethyl] ethyl carbonate]
≥ 80%: pest or weed control at 200 ppm [1] | inhibition of growth at 20 ppm [2] | pest or weed control at 200 ppm [3] | inhibition of growth at 20 ppm [4] | pest or weed control at 200 ppm [5] | inhibition of growth at 20 ppm [8] | inhibition of growth at 20 ppm [6] | pest or weed control at 200 ppm [7]

Cc1sc(N(C(=O)C(C)O)c2cc(F)nc(F)c2)nc1C(=O)NC1CCC12CCCC2 (centres unmarked) [X.05, 2-[(2,6-difluoro-4-pyridyl)-(2-hydroxypropanoyl)amino]-5-methyl-N-spiro[3.4]octan-3-yl-thiazole-4-carboxamide]
≥ 80%: inhibition of growth at 20 ppm [2] | pest or weed control at 200 ppm [3] | inhibition of growth at 20 ppm [4] | inhibition of growth at 20 ppm [6] | pest or weed control at 200 ppm [7]

COC(C)C(=O)N(c1cc(F)nc(F)c1)c1nc(C(=O)NC2CCC2)c(C)s1 (centres unmarked) [X.07, N-cyclobutyl-2-[(2,6-difluoro-4-pyridyl)-(2-methoxypropanoyl)amino]-5-methylthiazole-4-carboxamide]
≥ 80%: pest or weed control at 200 ppm [3] | pest or weed control at 200 ppm [9] | pest or weed control at 200 ppm [7]

CC(=O)OCC(=O)N(c1cc(F)nc(F)c1)c1nc(C(=O)NC2CCC2(C)C)c(C)s1 (centres unmarked) [X.08, [2-[(2,6-difluoro-4-pyridyl)-[4-[(2,2-dimethylcyclobutyl)carbamoyl]-5-methyl-thiazol-2-yl]amino]-2-oxo-ethyl] acetate]
≥ 80%: pest or weed control at 200 ppm [1] | inhibition of growth at 20 ppm [2] | pest or weed control at 200 ppm [3] | inhibition of growth at 20 ppm [4] | pest or weed control at 200 ppm [5] | pest or weed control at 200 ppm [10] | inhibition of growth at 20 ppm [8] | inhibition of growth at 20 ppm [6] | pest or weed control at 200 ppm [9] | pest or weed control at 200 ppm [7]

Cc1sc(N(C(=O)Cc2ccccc2)c2cc(F)nc(F)c2)nc1C(=O)NC1CCC1(C)C (centres unmarked) [X.09, 2-[(2,6-difluoro-4-pyridyl)-(2-phenylacetyl)amino]-N-(2,2-dimethylcyclobutyl)-5-methyl-thiazole-4-carboxamide]
≥ 80%: pest or weed control at 200 ppm [1] | inhibition of growth at 20 ppm [2] | pest or weed control at 200 ppm [3] | inhibition of growth at 20 ppm [4] | inhibition of growth at 20 ppm [6] | pest or weed control at 200 ppm [7]

COc1sc(N(C(C)=O)c2cc(F)nc(F)c2)nc1C(=O)NC1CCC12CCCC2 (centres unmarked) [X.10, 2-[acetyl-(2,6-difluoro-4-pyridyl)amino]-5-methoxy-N-spiro[3.4]octan-3-yl-thiazole-4-carboxamide]
≥ 80%: pest or weed control at 200 ppm [5] | pest or weed control at 200 ppm [7]

COCC(=O)N(c1cc(F)nc(F)c1)c1nc(C(=O)NC2CCC2)c(C)s1 [X.12, N-cyclobutyl-2-[(2,6-difluoro-4-pyridyl)-(2-methoxyacetyl)amino]-5-methyl-thiazole-4-carboxamide]
≥ 80%: pest or weed control at 200 ppm [3] | inhibition of growth at 20 ppm [4] | pest or weed control at 200 ppm [5] | pest or weed control at 200 ppm [7]

CC(=O)N(c1cc(F)nc(F)c1)c1nc(C(=O)NC2CCC2)c(C)s1 [X.13, 2-[acetyl-(2,6-difluoro-4-pyridyl)amino]-N-cyclobutyl-5-methyl-thiazole-4-carboxamide]
≥ 80%: pest or weed control at 200 ppm [3] | pest or weed control at 200 ppm [7]

CCN(CC)C(=O)N(c1cc(F)nc(F)c1)c1nc(C(=O)NC2CCC2(C)C)c(C)s1 (centres unmarked) [X.16, 2-[diethylcarbamoyl-(2,6-difluoro-4-pyridyl)amino]-N-(2,2-dimethylcyclobutyl)-5-methyl-thiazole-4-carboxamide]
≥ 80%: inhibition of growth at 20 ppm [2] | inhibition of growth at 20 ppm [4] | pest or weed control at 200 ppm [7]

COC(=O)CC(=O)N(c1cc(F)nc(F)c1)c1nc(C(=O)NC2CCC2(C)C)c(C)s1 (centres unmarked) [X.18, methyl 3-[(2,6-difluoro-4-pyridyl)-[4-[(2,2-dimethylcyclobutyl)carbamoyl]-5-methyl-thiazol-2-yl]amino]-3-oxo-propanoate]
≥ 80%: pest or weed control at 200 ppm [1] | inhibition of growth at 20 ppm [2] | pest or weed control at 200 ppm [3] | inhibition of growth at 20 ppm [4] | pest or weed control at 200 ppm [5] | pest or weed control at 200 ppm [10] | inhibition of growth at 20 ppm [8] | inhibition of growth at 20 ppm [6] | pest or weed control at 200 ppm [7]

Cc1sc(N(C(=O)c2ccco2)c2cc(F)nc(F)c2)nc1C(=O)NC1CCC1(C)C (centres unmarked) [X.19, 2-[(2,6-difluoro-4-pyridyl)-(furan-2-carbonyl)amino]-N-(2,2-dimethylcyclobutyl)-5-methyl-thiazole-4-carboxamide]
≥ 80%: pest or weed control at 200 ppm [3] | pest or weed control at 200 ppm [7]

Cc1sc(N(C(=O)CC(F)(F)F)c2cc(F)nc(F)c2)nc1C(=O)NC1CCC1(C)C (centres unmarked) [X.21, 2-[(2,6-difluoro-4-pyridyl)-(3,3,3-trifluoropropanoyl)amino]-N-(2,2-dimethylcyclobutyl)-5-methyl-thiazole-4-carboxamide]
≥ 80%: pest or weed control at 200 ppm [1] | inhibition of growth at 20 ppm [2] | pest or weed control at 200 ppm [3] | inhibition of growth at 20 ppm [4] | pest or weed control at 200 ppm [10] | inhibition of growth at 20 ppm [8] | inhibition of growth at 20 ppm [6] | pest or weed control at 200 ppm [7]

COC(=O)CCC(=O)N(c1cc(F)nc(F)c1)c1nc(C(=O)NC2CCC2(C)C)c(C)s1 (centres unmarked) [X.23, methyl 4-[(2,6-difluoro-4-pyridyl)-[4-[(2,2-dimethylcyclobutyl)carbamoyl]-5-methyl-thiazol-2-yl]amino]-4-oxo-butanoate]
≥ 80%: pest or weed control at 200 ppm [1] | inhibition of growth at 20 ppm [2] | pest or weed control at 200 ppm [3] | inhibition of growth at 20 ppm [4] | pest or weed control at 200 ppm [5] | pest or weed control at 200 ppm [10] | pest or weed control at 200 ppm [7]

Cc1sc(N(C(=O)Oc2ccccc2)c2cc(F)nc(F)c2)nc1C(=O)NC1CCC1(C)C (centres unmarked) [X.26, phenyl N-(2,6-difluoro-4-pyridyl)-N-[4-[(2,2-dimethylcyclobutyl)carbamoyl]-5-methyl-thiazol-2-yl]carbamate]
≥ 80%: inhibition of growth at 20 ppm [4] | pest or weed control at 200 ppm [7]

COCCOC(=O)N(c1cc(F)nc(F)c1)c1nc(C(=O)NC2CCC2(C)C)c(C)s1 (centres unmarked) [X.28, 2-methoxyethyl N-(2,6-difluoro-4-pyridyl)-N-[4-[(2,2-dimethylcyclobutyl)carbamoyl]-5-methyl-thiazol-2-yl]carbamate]
≥ 80%: pest or weed control at 200 ppm [3] | inhibition of growth at 20 ppm [4] | pest or weed control at 200 ppm [10] | pest or weed control at 200 ppm [7]

Cc1sc(N(C(=O)c2cccs2)c2cc(F)nc(F)c2)nc1C(=O)NC1CCC1(C)C (centres unmarked) [X.31, 2-[(2,6-difluoro-4-pyridyl)-(thiophene-2-carbonyl)amino]-N-(2,2-dimethylcyclobutyl)-5-methyl-thiazole-4-carboxamide]
≥ 80%: inhibition of growth at 20 ppm [4] | pest or weed control at 200 ppm [7]

COC(=O)N(c1cc(F)nc(F)c1)c1nc(C(=O)NC2CCC2(C)C)c(C)s1 (centres unmarked) [X.32, methyl N-(2,6-difluoro-4-pyridyl)-N-[4-[(2,2-dimethylcyclobutyl)carbamoyl]-5-methyl-thiazol-2-yl]carbamate]
≥ 80%: pest or weed control at 200 ppm [7]

CC(=O)N(c1cc(F)nc(F)c1)c1nc(C(=O)NC2CCC23CCCC3)c(C)s1 (centres unmarked) [X.37, 2-[acetyl-(2,6-difluoro-4-pyridyl)amino]-5-methyl-N-spiro[3.4] octan-3-yl-thiazole-4-carboxamide]
≥ 80%: pest or weed control at 200 ppm [5] | pest or weed control at 200 ppm [7]
